Source: patent EP0499337A1, “Use of tetra:hydro-thieno-pyrido-indole derivatives for the treatment of skin disorders” (YAMANOUCHI EUROPE B.V., priority 1991, dated 1992)
pIC50: −log10 of the molar value. Where two headings read alike, the source gives them in different places.

Assays:
[1] = system: HaCaT cells; experiment: Cytotoxicity, LDH release into the culture medium; conditions: 48 h after onset of drug exposure
Method: HaCaT cells were grown as described.
Cytotoxicity was assessed by measurements of the content of intracellular lactate dehydrogenase (LDH) activity released into the culture medium during 48 h after onset of drug exposure. Possible drug induced detachment of the HaCaT cells from the plate was assessed by collection of the medium from the wells and centrifugation (80 x g, 10 min.) The resulting pellet was suspended in 10 µl medium and cells were counted in a haemocytometer.

[2] = system: PMHL; experiment: Nonspecific cytotoxicity, trypane blue exclusion test; assay type: cell-based, human
Method: Nonspecific cytotoxicity of the test compounds on PMHL was assessed by […] blue exclusion test.

[3] = system: human polymorphonuclear leukocytes (PMNL); experiment: ROS generation from PMNL, lucigenin-amplified chemiluminescence; assay type: cell-based; conditions: Homo sapiens, PMNL, IC₅₀-values
Method: Human PMNL were isolated from fresh blood (anticoagulated with sodium citrate) by erythrocyte sedimentation with 1% dextran (Pharmacia, Uppsala, Sweden) centrifugation of the resulting supernatant, followed by hypoosmotic lysis to remove red blood cells. Washed cells were adjusted to 2 x 10⁶ cells/ml in PBS containing fetal calf serum (2%; v/v). Test compounds dissolved in DMSO were diluted with the assay buffer to a final DMSO concentration of 0.5% (v/v).
Then the test compounds (100 µl) were added with subsequent recording for another 16 min period. […] Results were expressed as percent of inhibition or stimulation of the controls (mean of two integrals) in a single experiment.

[4] = system: PKC from the central nervous system; experiment: Phosphorylation of synaptosomal plasma membranes: B-50 phosphorylation; assay type: biochemical; conditions: for phosphorylation of B-50 (% of control): without addition of CaM
Method: Subcellular fractionation and phosphorylation assay were performed according to Kristjansson et al., (1982). […] After a preincubation at 30°C for 5 min, the phosphorylation reaction was started by adding the ATP. The reaction was stopped after 15 sec. All compounds to be tested were present at the start of the preincubation. […]

[5] = system: rat brain synaptosomes; experiment: Noradrenaline release from permeated synaptosomes; assay type: cell-based; conditions: 100 µM
Method: Highly purified synaptosomes were prepared according to Dunkley and Robinson (1987). The synaptosomes were diluted with 3 ml buffer A (123 mM NaCl, 5 mM KCl, 2 mM CaCl₂, […], 1.15 mM NaH₂PO₄, 5.6 mM glucose, 20 mM PIPES pH 6.8, gassed with O₂:CO₂, 95:5) and incubated for 15 min at 37°C. Then 2.5 µCi noradrenalin (NA) was added, incubation was continued for 15 min and the synaptosomes were centrifuged for 20 min at 600 x g. The resulting pellet was washed twice in buffer A without CaCl₂ and resuspended (1 mg protein/ml).
For measurement of NA release, prelabeled synaptosomes were incubated at 37°C in buffer A containing Na₂ATP and EGTA-buffered Ca²⁺ in concentrations as indicated (final volume 120 µl). The release reaction was started by adding synaptosomes (20 µg protein) to the reaction mixture and terminated after 5 min by 30 sec centrifugation at 10,000 x g. The supernatant (90 µl) was collected and counted in a Packard Model 2,000 CA liquid scintillation counter with Picofluor as a scintillation cocktail. NA release was expressed as % of total [³H]-NA incorporated. Total NA incorporation was determined by measuring [³H]-incorporation in 20 µg prelabeled washed synaptosomes.

[6] = system: 50 kDa protein; experiment: Phosphorylation of synaptosomal plasma membranes: CaM-dependent phosphorylation of the 50 kDa protein; assay type: biochemical; conditions: in the presence of added CaM
Method: Subcellular fractionation and phosphorylation assay were performed according to Kristjansson et al., (1982). […] After a preincubation at 30°C for 5 min, the phosphorylation reaction was started by adding the ATP. The reaction was stopped after 15 sec. All compounds to be tested were present at the start of the preincubation. […] Phosphorylation of B-50 and the 50 kDa protein, which was only phosphorylated after addition of CaM, was measured in the presence of exogenous CaM (3 units/assay) and quantified.

[7] = system: TPA-induced ear edema in mice; experiment: Intraperitoneal administration, TPA-induced ear edema in mice; assay type: in vivo; conditions: intraperitoneally, 30, 10 or 3.3 mg/kg
Method: Mice were injected intraperitoneally with 30, 10 or 3.3 mg/kg body weight of the test substances, sphingosine in carboxymethylcellulose (0.5%) and tiflucarbine in physiologic Saline, 10 ml/kg body weight. After 60 minutes the mire were challenged on the left ear with a 0.01 wt% solution of 12-O-tetradecanoylphorbol-13-acetate (TPA) in a 80/20 mixture of acetone/water. At 0, 3, 6 and 24 h after challenge, ear thickness was determined.

[8] = system: HaCaT cells; experiment: Keratinocyte morphology, phase contrast microscopy; assay type: cell-based, human; conditions: 30 nM, monitored during 72 hours
Method: HaCaT cells were cultured under standard conditions. 24 h after plating (2.5 x 10⁶ cells) the medium was replaced by medium containing the test compounds. During 72 hours cell morphology was frequently monitored using a phase contrast photomicroscope (Olympus IMT-2, Tokyo, Japan).

[9] = system: Normal human keratinocytes; experiment: Cornified envelope formation (keratinocyte differentiation); assay type: cell-based; conditions: 4 h plus 48 h exposure, increasing concentrations
Method: Normal human keratinocytes were grown to confluence at low calcium concentration in the presence of 5% FCS, 1 µM isoproterenol and 10 ng EGF per ml. They were first exposed for 4 h to increasing concentrations of test compounds and subsequently reincubated for 48 h in medium containing normal calcium concentration and the same additives, test compounds and [³H]-leucine (1 µCi/ml). Thereafter, both spontaneous and ionophore-induced cornified envelope (CE) formation was determined [King et al. (1986) Exp. Cell. Res., 167: 252].

[10] = 16 min, compound added at peak, 16 min after opsonized zymosan, read-out: Peak CL
[11] = 30 min preincubation, unstimulated, read-out: Spontaneous CL
[12] = stimulation with opsonized zymosan after preincubation, read-out: Induced CL

Row | Molecule | LDH release [1] [µM] | Trypane blue [2] [µM] | pIC50 [3, 10] | pIC50 [3, 11] | pIC50 [3, 12] | further results
1 | CN1CCN(CCCN2c3ccccc3Sc3ccc(C(F)(F)F)cc32)CC1 [Trifluoroperazine] | 30 | 100 | – | – | – | –
2 | CN(C)CCCN1c2ccccc2Sc2ccc(Cl)cc21 [Chlorpromazine] | 30 | 30 | 4.66 | 5.31 | 5.12 | –
3 | CC(CN1c2ccccc2Sc2ccccc21)N(C)C (stereo not drawn) [Promethazine] | 100 | 100 | 4.21 | 4.63 | 4.50 | –
4 | NCCCCCCNS(=O)(=O)c1cccc2c(Cl)cccc12 [W-7, N-(6-aminohexyl)-5-chloro-1-naphthalene sulfonamide] | 100 | 15 | 5.00 | 5.20 | 5.20 | –
5 | CSc1ccc2c(c1)N(CCC1CCCCN1C)c1ccccc1S2 (stereo not drawn) [Thioridazine] | – | – | 4.97 | 5.62 | 5.19 | –
6 | Polymyxin B | – | – | – | – | – | B-50 phosphorylation ([4]; in the presence of exogenous CaM (3 units/assay)): dose-dependently inhibited; phosphorylation of B-50 (% of control) ([4]; concentration 0.1 µM): 95 ± 8 % of control; phosphorylation of B-50 (% of control) ([4]; concentration 1 µM): 103 ± 9 % of control; phosphorylation of B-50 (% of control) ([4]; concentration 10 µM): 82 ± 11 % of control; phosphorylation of B-50 (% of control) ([4]; concentration 100 µM): 18 ± 8 % of control; noradrenaline release ([5]; high (10 µM) Ca²⁺): 19.4 ± 2.38 % of total [³H]-noradrenaline; noradrenaline release ([5]; low (10 nM) Ca²⁺): 16.5 ± 1.03 % of total [³H]-noradrenaline; phosphorylation of the 50 kDa protein [6]: dose-dependently inhibited
7 | CCCCCCCCCCCCC/C=C/[C@@H](O)[C@@H](N)CO [Sphingosine] | – | – | – | – | – | ear edema (ear thickness), compared with tiflucarbine [7]: more potent
8 | CN[C@@H]1C[C@H]2O[C@@](C)([C@@H]1OC)n1c3ccccc3c3c4c(c5c6ccccc6n2c5c31)C(=O)NC4 [Staurosporine] | 10 | 3 | – | – | – | effect on morphology [8]: effects on morphology; spontaneous CE formation [9]: marked effect
